{"source": "paper PMC1079851", "about": "“Cloning of the koi herpesvirus (KHV) gene encoding thymidine kinase and its use for a highly sensitive PCR based diagnosis” (BMC Microbiology, 2005)", "target": "T1, KHV TK (recombinant thymidine kinase) (Cyprinid herpesvirus 3, UniProt Q8B3A9)", "T1 construct": "gene CyHV3_ORF55; E. coli ER2566, chitin column", "test": "DE-81 filter paper radiometric kinase assay", "format": "biochemical", "details": "ATP 10.0 mM, MgCl2 2.0 mM, Tris-Cl 140 mM, 37 °C; substrate 5-30 mM; labelled compound (methyl-3H)"}
{"compound": "Cc1cn([C@H]2C[C@H](O)[C@@H](CO)O2)c(=O)[nH]c1=O", "note": "[methyl-3H Thymidine (dThd)]", "values": [{"measurement": "DE-81 filter paper radiometric kinase assay", "value": "the enzyme is specifically active using methyl-^3H Thymidine (dThd)"}]}
